Experimental findings from US7429396B2, “Antifungal composition, its fungicidal effect on pathogenic dermatophytes, and process for inhibiting growth of fungi” (Bio-Botanica, Inc., priority 2003, dated 2008) are described below.

The structures appear in SMILES notation. In brackets after ≈: the same amount, converted by molar mass.

Holding throughout (assay type): cell-based
Assay [1] deals with Trichophyton mentagrophytes ATCC 9533. In words: Macrodilution broth MIC/MFC test on dermatophytes (Example 4). The conditions noted are these: for MIC: Trichophyton mentagrophytes, ATCC9533, read-out: Minimum Inhibitory Concentration (MIC). The protocol: (§1) The organisms used included Epidermophyton floccosum ATCC 52066, Trichophyton mentagrophytes ATCC 9533, and Microsporum canis ATCC 36299. The molds were cultured on Oatmeal Agar slants to allow for conidial formation and incubated for 7 days at 25° C. For each mold, 5 ml of sterile 0.85% NaCl was added to each slant, the culture surface was rubbed with a sterile wooden applicator stick, and the suspension was then transferred to a sterile tube. By comparison to the McFarland 0.5 turbidity standard, the suspension was adjusted by adding sterile 0.85% NaCl as necessary. The resulting suspension was c.1×10^8 CFU/ml. Then 300 μl of organism suspension was added to 10 ml of sterile saline, diluting it to c.1×10^6 CFU/ml.
(§2) The Macrodilution broth method was performed using serial two-fold dilutions of RPMI-1640 (Sigma) with L-glutamine but without sodium bicarbonate.
(§3) Six 18×150 tubes of RPMI-1640 were used for each organism tested. Starting with tube 1 containing 20 ml RPMI labeled as 0.250 μl/ml and then tubes 2 through 6 containing 10 ml RPMI labeled as 0.125 μl/ml, 0.06 μl/ml, 0.03 μl/ml, 0.015 μl/ml, and 0.008 μl/ml respectively. • 1. 26 μl of each product of Examples 1-3 was added to 1000 μl DMSO. The final concentration of DMSO is kept below 1%. • 2. 200 μl of the sample dilution (26 μl/ml) was added to tube 1 (20 ml of RPMI-1640) making an initial concentration of 0.250 μl/ml. • 3. A serial dilution was performed, pipetting 10 ml from tube 1 to tube 2; continuing the dilution to tube 6.
(§4) For the Clotrimazole, Mycelex® and Ciclopirox Olamine, ten 18×150 tubes of RPMI-1640 were used for each organism tested. Starting with tube 1 containing 20 ml RPMI labeled 16 μg/ml and then tubes 2 through 10 containing 10 ml RPMI labeled as 8.0 μg/ml, 4.0 μg/ml, 2.0 μg/ml, 1.0 μg/ml, 0.50 μg/ml, 0.25 μg/ml, 0.125 μg/ml, 0.06 μg/ml and 0.03 μg/ml respectively. • 1. 160 mg of active ingredient was added to 100 ml DMSO. • 2. 200 μl of the sample dilution (1600 μg/ml) was added to tube 1 (20 ml of RPMI-1640) making an initial concentration of 16 μg/ml. • 3. A serial dilution was performed, pipetting 10 ml from tube 1 to tube 2; continuing the dilution to tube 10. Inoculation and Incubation
(§5) Once the tubes were arranged according to product, concentration and mold type, 300 μl of appropriate mold inoculum was added to each tube and the tubes were then placed in an incubator at 35° C. along with a purity plate for inoculum verification for each mold. The final mold inoculum level was c.1×10^4 CFU/ml. As controls, one tube with 10 ml RPMI was used for the “Negative Control”, and 3 tubes with 10 ml RPMI plus 300 μl mold inoculum were used for the positive controls (one for each mold).
(§6) Final results were recorded after 7 days. Growth (G) was noted when there was full growth visible (i.e. the tube appeared as cloudy as the positive control tube). Partial activity (P) was recorded when the broth in the tube was less turbid than the positive control tube. No growth (I) was recorded when there was total inhibition and the broth in the tube appeared clear (in comparison with the negative control tube).
(§7) The MIC measures fungistatic activity as the lowest concentration that will inhibit growth of the mold. […] The MIC for an azole is the lowest concentration capable of inhibiting 80% growth, which would be a result of partial inhibition (P), one dilution below full inhibition.
(§8) The MFC measures the lowest concentration of the test agent that will kill the fungi. The fungicidal activity of the products was determined by subculturing 20 μl from tubes with no visible growth onto properly labeled SDA plates. Also 20 μl from the last tube with growth and 20 μl from the positive control tube were subcultured as controls. All plates were incubated at 25° C. for 14 days. The MFC was recorded as the lowest concentration showing no growth or <3 colonies of growth, which equals 99-99.5% killing activity.

The subject of assay [2] is Microsporum canis ATCC 36299. Described as above. The conditions noted are these: for MIC: Microsporum canis, ATCC36299, read-out: Minimum Inhibitory Concentration (MIC). The protocol:
as §1, §2, §3, §4, §5, §6, §7, §8

Assay [3] deals with Epidermophyton floccosum ATCC 52066. The assay is described as above. The conditions noted are these: for MIC: Epidermophyton floccosum, ATCC52066, read-out: Minimum Inhibitory Concentration (MIC). How it is done: as §1, §2, §3, §4, §5, §6, §7, §8
Assay [4] relates to all organisms (Epidermophyton floccosum, Trichophyton mentagrophytes, Microsporum canis). In words: Macrodilution broth MIC/MFC, all dermatophytes tested (Example 4). The settings on record: for MIC: all dermatophytes. The protocol: as §1, §2, §3, §4, §5, §6, §7, §8

Turning to `Cc1cc(C2CCCCC2)n(O)c(=O)c1` [Ciclopirox Olamine], the “growth score, MIC test” value in assay [1] (16.0 μg/ml), in assay [2] (8.0 μg/ml), in assay [2] (16.0 μg/ml), in assay [3] (8.0 μg/ml) and in assay [3] (16.0 μg/ml) was “I” each time. For the same compound, the MIC was determined as 16 µg/mL (≈ 77.2 µM) in assay [1], 4 µg/mL (≈ 19.3 µM) in assay [2], 8 µg/mL (≈ 38.6 µM) in assay [3] and 16 µg/mL (≈ 77.2 µM) in assay [4]. The “MIC to Inhibit all organisms” value in assay [4] came to 0.0016%. Moreover, in assay [4], the “concentration at which still unable to kill the dermatophytes (MFC)” value is given as “greater than 32 μg/ml”. For the same compound, the “fungistatic or fungicidal activity” value in assay [4] is “fungistatic not fungicidal”.
For the compound `Clc1ccccc1C(c1ccccc1)(c1ccccc1)n1ccnc1` [Clotrimazole], the “growth score, MIC test” value in assay [1] (0.125 μg/ml), in assay [1] (0.250 μg/ml), in assay [1] (0.50 μg/ml), in assay [1] (1.0 μg/ml), in assay [1] (2.0 μg/ml) and in assay [1] (4.0 μg/ml) was “I” in each case. For the same compound, the “growth score, MIC test” value in assay [1] (8.0 μg/ml), in assay [1] (16.0 μg/ml), in assay [2] (0.125 μg/ml), in assay [2] (0.250 μg/ml), in assay [2] (0.50 μg/ml) and in assay [2] (1.0 μg/ml) was “I” in each case. In addition, the “growth score, MIC test” value in assay [2] (2.0 μg/ml), in assay [2] (4.0 μg/ml), in assay [2] (8.0 μg/ml), in assay [2] (16.0 μg/ml), in assay [3] (0.125 μg/ml) and in assay [3] (0.250 μg/ml) was “I” in each case. Moreover, the “growth score, MIC test” value in assay [3] (0.50 μg/ml), in assay [3] (1.0 μg/ml), in assay [3] (2.0 μg/ml), in assay [3] (4.0 μg/ml), in assay [3] (8.0 μg/ml) and in assay [3] (16.0 μg/ml) was “I” in each case. In addition, the MIC in assay [1], in assay [2], in assay [3] and in assay [4] was 0.06 µg/mL (≈ 0.174 µM) in each case. In assay [4], the “MIC to Inhibit all organisms” value is 0.000006%. The “concentration at which still unable to kill the dermatophytes (MFC)” value in assay [4] is “greater than 4 μg/ml”. Moreover, in assay [4], the “fungistatic or fungicidal activity” value is “fungistatic not fungicidal”.
